Where two headings read alike, the source gives them in different places.
What was measured:
Type in all cases: in vivo
Spodoptera littoralis [1] = assay: Spodoptera littoralis (Egyptian cotton leafworm) cotton leaf disc test; conditions: foliar, 72 h, 200 ppm sprayed on cotton leaf discs, mortality, feeding behavior, growth regulation 3 days after treatment
Method: Spodoptera littoralis (Egyptian Cotton Leafworm): Cotton leaf discs were placed on agar in a 24-well microtiter plate and sprayed with test solutions at an application rate of 200 ppm. After drying, the leaf discs were infested with […]. The samples were checked for mortality, feeding behavior, and growth regulation 3 days after treatment (DAT).

Heliothis virescens = Heliothis virescens (tobacco budworm) egg test on artificial diet; conditions: 96 h, 200 ppm (concentration in well 18 ppm), eggs on artificial diet, egg mortality, larval mortality, growth regulation after 4 days
Method: Heliothis virescens (Tobacco Budworm): Eggs (0-24 h old) were placed in 24-well microtiter plate on artificial diet and treated with test solutions at an application rate of 200 ppm (concentration in well 18 ppm) by pipetting. After an incubation period of 4 days, samples were checked for egg mortality, larval mortality, and growth regulation.

Plutella xylostella = Plutella xylostella (diamond back moth) artificial diet test; conditions: 144 h, 200 ppm (concentration in well 18 ppm), L2 larvae, larval mortality and growth regulation after 6 days
Method: (§1) Plutella xylostella (Diamond Back Moth): 24-well microtiter plate (MTP) with artificial diet was treated with test solutions at an application rate of 200 ppm (concentration in well 18 ppm) by pipetting. After drying, the MTPs were infested with L2 larvae (7-12 per well). After an incubation period of 6 days, samples were checked for larval mortality and growth regulation.

Diabrotica balteata = Diabrotica balteata (corn root worm) artificial diet test; conditions: 120 h, 200 ppm (concentration in well 18 ppm), L2 larvae, larval mortality and growth regulation after 5 days
Method: as §1, with “Diabrotica balteata (Corn Root Worm): A” for “Plutella xylostella (Diamond Back Moth):”, “(6-10” for “(7-12”, “5” for “6”

Thrips tabaci = Thrips tabaci (onion thrips) sunflower leaf disc test; conditions: foliar, 168 h, 200 ppm sprayed on sunflower leaf discs, mixed ages, mortality after 7 days
Method: Thrips tabaci (Onion Thrips): Sunflower leaf discs were placed on agar in a 24-well microtiter plate and sprayed with test solutions at an application rate of 200 ppm. After drying, the leaf discs were infested with a thrips population of mixed ages. After an incubation period of 7 days, samples were checked for mortality.

Tetranychus urticae = Tetranychus urticae (two-spotted spider mite) bean leaf disc test; conditions: foliar, 192 h, 200 ppm sprayed on bean leaf discs, mixed ages, egg, larval and adult mortality 8 days later
From the text: Tetranychus urticae (Two-Spotted Spider Mite): Bean leaf discs on agar in 24-well microtiter plates were sprayed with test solutions at an application rate of 200 ppm. After drying, the leaf discs are infested with mite populations of mixed ages. 8 days later, discs are checked for egg mortality, larval mortality, and adult mortality.

Spodoptera littoralis [2] = assay: Spodoptera littoralis persistence test on sprayed cotton plants (increased safety profile / bio-degradability); conditions: Spodoptera littoralis, 12.5 ppm on cotton plants, 10 L3 larvae, mortality after 6 days incubation
Method: Biological Examples Showing Increased Safety Profile:
Spodoptera littoralis (Egyptian Cotton Leafworm)
Cotton plants in the 5th leaf stage (around 5 weeks old) are treated in an automated turn table spray chamber. Plants are stored in the greenhouse length during the whole test period.
2, 16 and optionally 10 days after treatment 4 leaves from each sample are excised, placed into 14 cm plastic petri dishes on wet filter paper. The infestation of 10 L3-Spodoptera littoralis is made immediately afterwards. After an incubation period of 6 days the samples are checked for mortality.
In the following series of experiments the compounds of the invention are compared with the corresponding isoxazoline analogues from the prior art on Spodoptera littoralis (Egyptian cotton leafworm) performed as described in the method above.

[3] = 48 h, leaves excised 2 days after treatment, read-out: Control after 2 days/%
[4] = 384 h, leaves excised 16 days after treatment, read-out: Control after 16 days/%

CO/N=C/NC(=O)c1ccc(C2=NSC(c3cc(Cl)cc(Cl)c3)(C(F)(F)F)C2)cc1C (stereo not drawn) [Compound C1, 4-[5-(3,5-dichlorophenyl)-5-(trifluoromethyl)-4H-isothiazol-3-yl]-N-[(E)-methoxyiminomethyl]-2-methyl-benzamide]
pest or weed control at 200 ppm (Spodoptera littoralis [1]): ≥ 80%
pest or weed control at 200 ppm (Heliothis virescens): ≥ 80%
pest or weed control at 200 ppm (Plutella xylostella): ≥ 80%
pest or weed control at 200 ppm (Diabrotica balteata): ≥ 80%
pest or weed control at 200 ppm (Thrips tabaci): ≥ 80%
pest or weed control at 200 ppm (Tetranychus urticae): ≥ 80%
pest or weed control at 12.5 ppm (Spodoptera littoralis [2]; [3]): 100%
pest or weed control at 12.5 ppm (Spodoptera littoralis [2]; [4]): 5%

CO/N=C/NC(=O)c1ccc(C2=NSC(c3cc(Cl)cc(Cl)c3)(C(F)(F)F)C2)cc1Cl (stereo not drawn) [Compound C3, 2-chloro-4-[5-(3,5-dichlorophenyl)-5-(trifluoromethyl)-4H-isothiazol-3-yl]-N-[(E)-methoxyiminomethyl]benzamide]
pest or weed control at 200 ppm (Spodoptera littoralis [1]): ≥ 80%
pest or weed control at 200 ppm (Heliothis virescens): ≥ 80%
pest or weed control at 200 ppm (Plutella xylostella): ≥ 80%
pest or weed control at 200 ppm (Diabrotica balteata): ≥ 80%
pest or weed control at 200 ppm (Thrips tabaci): ≥ 80%
pest or weed control at 200 ppm (Tetranychus urticae): ≥ 80%
pest or weed control at 12.5 ppm (Spodoptera littoralis [2]; [3]): 100%
pest or weed control at 12.5 ppm (Spodoptera littoralis [2]; [4]): 0%

Cc1cc(C2=NSC(c3cc(Cl)c(Cl)c(Cl)c3)(C(F)(F)F)C2)ccc1C(=O)NCC(=O)NCC(F)(F)F (stereo not drawn) [Compound D1, 2-methyl-N-[2-oxo-2-(2,2,2-trifluoroethylamino)ethyl]-4-[5-(3,4,5-trichlorophenyl)-5-(trifluoromethyl)-4H-isothiazol-3-yl]benzamide]
pest or weed control at 200 ppm (Spodoptera littoralis [1]): ≥ 80%
pest or weed control at 200 ppm (Heliothis virescens): ≥ 80%
pest or weed control at 200 ppm (Plutella xylostella): ≥ 80%
pest or weed control at 200 ppm (Diabrotica balteata): ≥ 80%
pest or weed control at 200 ppm (Thrips tabaci): ≥ 80%
pest or weed control at 200 ppm (Tetranychus urticae): ≥ 80%
pest or weed control at 12.5 ppm (Spodoptera littoralis [2]; [3]): 100%
pest or weed control at 12.5 ppm (Spodoptera littoralis [2]; [4]): 10%

Reference: patent US9078444B2, “Isothiazoline derivatives as insecticidal compounds” (Syngenta Participations AG, priority 2011, dated 2015)
